The results in this text go back to ChEMBL document CHEMBL1201862, “PubChem BioAssay data set” (2004).

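Growth conditions: 96-well plates. Treatment: test compound, 48 hours, 5 concentrations. Analysis: linear interpolation between bracketing concentrations; unreached endpoints set to highest concentration. Abbreviation: GI50, concentration required for 50% inhibition of growth.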 Activity calls are given as the source filed them. Cut-off read from the data, not from the text of the source: active = GI50 up to about 1.1 µM and inactive = higher.

Common to all, as to experiment: growth of human tumour cells (NCI), 48 h
The test system of assay [1] is NCI-H226.
The subject of assay [2] is SR.
Assay [3] relates to OVCAR-8.
Assay [4] has as its system TK-10.
The test system of assay [5] is SNB-75.
Assay [6] relates to UO-31.
The test system of assay [7] is MCF7.
For assay [8], the system named is MDA-N.
In assay [9] the test system is Hs-578T.
In assay [10] the test system is PC-3.
The test system of assay [11] is 786-0.
Assay [12] relates to MDA-MB-435.
Assay [13] concerns NCI/ADR-RES.
Assay [14] concerns MDA-MB-231.
For assay [15], the system named is LOX IMVI.
The subject of assay [16] is T47D.
Assay [17] concerns RXF 393.
The subject of assay [18] is DU-145.
The subject of assay [19] is BT-549.

As to `C=CCN1C(N)=C(C(N)=O)S/C1=C1/SC(=S)N(c2ccc(C)cc2)C1=O`, the GI50 in [1] was > 100 µM (inactive); in assay [2], > 100 µM (inactive); in assay [3], > 100 µM (inactive); in [4], > 100 µM (inactive); in [5] it was 12.6 µM (inactive); in assay [6] it was > 100 µM (inactive).

On to `Cc1ccc(/C=C2\CN(C)CC3=C2N=C(S)NC3c2ccc(C)cc2)cc1` (stereo not given), for which the GI50 in [7] was 24.7 µM (inactive); in assay [8], 13.5 µM (inactive); in [1], 27.8 µM (inactive); in assay [2], < 0.01 µM (active); in [3], 25.5 µM (inactive); in assay [4] it was 0.341 µM (active). In addition, the GI50 in [5] was 10.2 µM (inactive); in assay [6], 55.1 µM (inactive); in [9], > 100 µM (inactive); in assay [10], 32.1 µM (inactive); in assay [11], 21 µM (inactive); in assay [12], 8.63 µM (inactive). In addition, the GI50 in [13] is 23.8 µM (inactive); in [14], 34.8 µM (inactive); in [15] it was 30.3 µM (inactive); in assay [16] it was > 100 µM (inactive); in assay [17], 31.6 µM (inactive); in [18], 34.4 µM (inactive).

For the molecule `CS/C(=N\S(=O)(=O)c1ccc(Cl)cc1)NCCN/C(=N/S(=O)(=O)c1ccc(Cl)cc1)SC`, the GI50 is > 100 µM (inactive) in [7]; > 100 µM (inactive) in assay [8]; > 100 µM (inactive) in assay [2]; 19.9 µM (inactive) in assay [3]; 31.6 µM (inactive) in [4]; 24.4 µM (inactive) in assay [5]. Also, the GI50 in assay [6] is > 100 µM (inactive); in [10] it was 8.43 µM (inactive); in [11], 24.8 µM (inactive); in assay [12] it was > 100 µM (inactive); in assay [13], > 100 µM (inactive); in [14] it was > 100 µM (inactive). For the same molecule, the GI50 in assay [15] and in assay [18] was > 100 µM (inactive) each time.

On to `Cc1c(C#N)c2nnn(C)c(=O)n2c1-c1ccccc1`, for which the GI50 in [7] was 71 µM (inactive); in assay [8] it was > 100 µM (inactive); in assay [1], 62.1 µM (inactive); in [19] it was 87.7 µM (inactive); in [3], 48.2 µM (inactive); in assay [4], > 100 µM (inactive). Also, the GI50 in assay [5] is 23.6 µM (inactive); in [6], 95.5 µM (inactive); in assay [10], 54.5 µM (inactive); in assay [12] it was > 100 µM (inactive); in assay [13], 17.5 µM (inactive); in assay [14], > 100 µM (inactive). Moreover, the GI50 in [17] is > 100 µM (inactive).

For the molecule `O=S1(=O)CS(=O)(=O)OCCCO1`, the GI50 is 97.1 µM (inactive) in assay [7]; > 100 µM (inactive) in assay [8]; > 100 µM (inactive) in assay [1]; 41.2 µM (inactive) in assay [2]; > 100 µM (inactive) in assay [3]; > 100 µM (inactive) in assay [4]. For the same molecule, the GI50 in [5] was 51.8 µM (inactive); in assay [6] it was > 100 µM (inactive); in assay [9], > 100 µM (inactive); in assay [10] it was > 100 µM (inactive); in [11] it was > 100 µM (inactive); in [12], > 100 µM (inactive). The GI50 in assay [13], in assay [14], in assay [15], in [16], in assay [17] and in [18] was > 100 µM (inactive) throughout.

With `Cc1sc(Cc2ccccc2)nc1-c1ccc(N)cc1`, the GI50 in assay [7] was 19.5 µM (inactive); in assay [19], 28.2 µM (inactive); in assay [3] it was 31 µM (inactive); in assay [4] it was 47.5 µM (inactive); in assay [6], 38.9 µM (inactive); in assay [9], 20.2 µM (inactive). Besides, the GI50 in assay [10] is 29.9 µM (inactive); in assay [12] it was 17.7 µM (inactive); in assay [13], 27.7 µM (inactive); in [14] it was 26.1 µM (inactive); in assay [15], 15.2 µM (inactive).
